These results are taken from ChEMBL document CHEMBL1857833, “Screening and optimization of specific chemical series against human African Trypanosomiasis (HAT)”.

A short description of series [1]: DNDI: Cytotoxicity against L929 mouse fibroblasts, 72 hour. Type of series: toxicity, cell-based. As to conditions: mouse, L929 mouse fibroblasts.
The next series deals with Trypanosoma brucei. The series can be described thus: DNDI: Inhibition of Human African Trypanosomiasis, SBRI 427, in vitro. Type of series: functional, organism-based. The note with it: Trypanosoma brucei, SBRI 427; read-out: IC50.
The conditions of series [2]: mouse, microsomes, 1 µM.
Description: DNDI: in vitro intrinsic clearance in mouse liver microsomes at a concentration of 1uM
A further series can be described thus: in vitro. The note with it: mouse, liver microsomes, t (1 / 2). On the technique in general: Liver microsomes are vesicles of endoplasmic reticulum, rich in cytochrome P450 enzymes.
Series [3] is described as follows: DNDI: Cytotoxicity against L929 mouse fibroblasts, CYTO-SP, 24 hour. The note with it: mouse, L929 mouse fibroblasts. The class given is toxicity, cell-based.

What is called IC50 is the point on the concentration scale where inhibition reaches its midpoint. What is called half-life is how long it takes for the measured level to halve. Higher therefore signals slow decline.

Converted amounts (≈) assume the structure as drawn.

Description for in vitro: DNDI: half life in mouse liver microsomes at a concentration of 1uM

`Cc1ccc(Cc2ccccc2/C(=N/O)NC2CCCCC2)cc1` returned an IC50 at 72 h in series [1] of 3.48 µg/mL (≈ 10.8 µM). For the same compound, the IC50 in the series with Trypanosoma brucei was determined as 1.17 µg/mL (≈ 3.63 µM). In addition, the CLint in vitro in series [2] turned out to be 318 µL/min/mg. Also, the half-life at 1 µM in the series “in vitro” is 3 min.
As to `CCCC(CCC)NCc1coc(-c2ccc(Cl)cc2)n1`, the concentration for half-maximal inhibition (IC50) at 24 h in series [3] turned out to be 38.4 µg/mL (≈ 125 µM). This compound also showed an IC50 at 72 h in series [1] of 5.72 µg/mL (≈ 18.6 µM). For the same compound, in the series with Trypanosoma brucei, the IC50 turned out to be 2.08 µg/mL (≈ 6.78 µM).
Take `C[C@H](NCc1coc(-c2ccc(Cl)cc2)n1)C1CCCCC1`: the IC50 at 24 h in series [3] is > 50 µg/mL. For the same compound, the IC50 at 72 h in series [1] is < 3.13 µg/mL. Also, the IC50 with Trypanosoma brucei is 2.29 µg/mL (≈ 7.18 µM).
The like results for `Clc1ccc(-c2nc(CNc3ccccc3)co2)cc1` were, in that order, > 50 µg/mL, 10.5 µg/mL (≈ 36.9 µM) and > 5 µg/mL.
As to `CCCCCC(C)NCc1coc(-c2cc(F)ccc2F)n1` (stereo not drawn), the IC50 at 24 h in series [3] worked out at 36 µg/mL (≈ 117 µM). The compound also gave an IC50 at 72 h in series [1] of 13.2 µg/mL (≈ 42.7 µM). For the same compound, the IC50 in the series on Trypanosoma brucei amounted to 2.69 µg/mL (≈ 8.72 µM).
The like results for `C[C@@H]1[C@H]2C[C@@H](C[C@H]1NCc1coc(-c3sccc3Cl)n1)C2(C)C` were, in that order, > 50 µg/mL, > 50 µg/mL and > 5 µg/mL.
For `O/N=C(/NC1CCCCC1)c1cccnc1Oc1ccc(F)cc1`, the IC50 at 72 h in series [1] was > 10 µg/mL. The IC50 in the series on Trypanosoma brucei stood at 1.4 µg/mL (≈ 4.25 µM). For the same compound, the CLint in vitro in series [2] stood at 389 µL/min/mg. For the same compound, the half-life at 1 µM in the series “in vitro” worked out at 2 min.
Regarding `Clc1ccsc1-c1nc(CNC2CCCCCC2)co1`, in series [3], the IC50 at 24 h was > 50 µg/mL. This compound also had an IC50 at 72 h in series [1] of 11.8 µg/mL (≈ 38.1 µM). Further, in the series with Trypanosoma brucei, the IC50 was > 5 µg/mL.
In the case of `c1cc(-c2nc(CNC3CCCCCC3)co2)ccc1OC1CCCCC1`, half-maximal inhibition in series [1] (IC50 at 72 h) was put at 1.29 µg/mL (≈ 3.5 µM). In addition, the IC50 with Trypanosoma brucei is 0.43 µg/mL (≈ 1.17 µM). Moreover, in series [2], the CLint in vitro was determined as 11 µL/min/mg. In addition, the half-life at 1 µM in the series “in vitro” was 78 min.
Taken in the same sequence, the figures for `O/N=C(/NC1CCCCC1)c1cccnc1Oc1ccc(Cl)cc1` were > 10 µg/mL, 0.93 µg/mL (≈ 2.69 µM), 367 µL/min/mg and 2 min.
`CCCCCC(C)NCc1coc(-c2ccc(F)c(F)c2)n1` (stereo not drawn) came in with an IC50 at 24 h in series [3] of 37 µg/mL (≈ 120 µM). The compound further showed an IC50 at 72 h in series [1] of 6.34 µg/mL (≈ 20.6 µM). Moreover, the IC50 in the series with Trypanosoma brucei was 1.74 µg/mL (≈ 5.64 µM).
On to `Clc1ccsc1-c1nc(CNC2[C@H]3C[C@@H]4C[C@@H](C[C@H]2C4)C3)co1` (stereo partly drawn), for which the IC50 at 24 h in series [3] is > 50 µg/mL. Also, half-maximal inhibition in series [1] (IC50 at 72 h) was put at 10.6 µg/mL (≈ 30.3 µM). Moreover, the half-maximal inhibitory concentration (IC50) in the series with Trypanosoma brucei is > 5 µg/mL.
In series [1], `CCCCCC(C)NCc1coc(-c2cccc(Oc3ccccc3)c2)n1` (stereo not drawn) had an IC50 at 72 h of 1.76 µg/mL (≈ 4.83 µM). Besides, the IC50 in the series on Trypanosoma brucei was determined as 1.14 µg/mL (≈ 3.13 µM). Further, the CLint in vitro in series [2] was 14 µL/min/mg. In the series “in vitro”, this compound had a half-life at 1 µM of 63 min.
Consider `O/N=C(\NC1CCCCC1)c1ccccc1Cc1ccccc1`, for which the IC50 at 72 h in series [1] was 4.57 µg/mL (≈ 14.8 µM). Moreover, in the series on Trypanosoma brucei, the IC50 was determined as 1.19 µg/mL (≈ 3.86 µM). For the same compound, the CLint in vitro in series [2] was 381 µL/min/mg. In addition, the half-life at 1 µM in the series “in vitro” came to 2 min.
`CCCCCC(C)NCc1coc(-c2ccc(F)cc2F)n1` (stereo not drawn): the IC50 at 24 h in series [3] is > 50 µg/mL. Further, the IC50 at 72 h in series [1] stood at 12.4 µg/mL (≈ 40.3 µM). Also, the IC50 with Trypanosoma brucei was 2.97 µg/mL (≈ 9.63 µM).
The like results for `Clc1ccc(-c2nc(CN[C@]34C[C@H]5C[C@H](C[C@H](C5)C3)C4)co2)cc1` were, in that order, > 50 µg/mL, 37.6 µg/mL (≈ 110 µM) and > 5 µg/mL.
Take `CCCCCC(C)NC(=O)c1coc(-c2ccccc2)n1` (stereo not drawn): in series [3], the IC50 at 24 h was > 50 µg/mL. Further, the IC50 at 72 h in series [1] is 27.2 µg/mL (≈ 95 µM). In addition, the IC50 in the series with Trypanosoma brucei was > 5 µg/mL.
The like results for `CN(Cc1coc(-c2ccc(Cl)cc2)n1)C1CCCCC1` were, in that order, > 50 µg/mL, 11.4 µg/mL (≈ 37.4 µM) and 2.7 µg/mL (≈ 8.86 µM).
The like results for `CC1(C)[C@H]2CC[C@@H](CNCc3ccc(-c4ccccc4)s3)[C@@H]1C2` were, in that order, > 50 µg/mL, 6.63 µg/mL (≈ 20.4 µM) and 1.02 µg/mL (≈ 3.13 µM).
On to `Clc1ccc(-c2nc(CNC3CCCC3)co2)cc1`, for which the IC50 at 24 h in series [3] is > 50 µg/mL. This compound also registered an IC50 at 72 h in series [1] of 12.9 µg/mL (≈ 46.8 µM). In addition, the IC50 in the series with Trypanosoma brucei stood at 4.78 µg/mL (≈ 17.3 µM).
In the case of `COc1ccc(/C(=N/O)Nc2cccc(-c3ccccc3)c2)cc1`, in series [1], the IC50 at 72 h is > 10 µg/mL. This compound displayed a CLint in vitro in series [2] of 66 µL/min/mg. Further, the half-life at 1 µM in “in vitro” was 13 min.
Consider `Clc1ccc(-c2nc(CN3CCCCC3)co2)cc1`, for which the IC50 at 24 h in series [3] was > 50 µg/mL. Besides, the IC50 at 72 h in series [1] was 34.4 µg/mL (≈ 124 µM). Also, the IC50 in the series with Trypanosoma brucei was > 5 µg/mL.
Turning to `CC1(C)[C@H]2CC[C@@H](CNCc3coc(-c4sccc4Cl)n3)[C@@H]1C2`, the IC50 at 24 h in series [3] was > 50 µg/mL. For the same compound, the IC50 at 72 h in series [1] is > 50 µg/mL. For the same compound, the IC50 with Trypanosoma brucei was > 5 µg/mL.
In the case of `CCCCCC(C)NCc1coc(-c2cccc(F)c2F)n1` (stereo not drawn), in series [3], the IC50 at 24 h was > 50 µg/mL. The compound further yielded an IC50 at 72 h in series [1] of 10.7 µg/mL (≈ 34.5 µM). The IC50 in the series with Trypanosoma brucei worked out at 4.08 µg/mL (≈ 13.2 µM).
On to `CCCCC[C@@H](C)NCc1coc(-c2ccc(Cl)cc2)n1`, for which, in series [3], the IC50 at 24 h is > 50 µg/mL. In series [1], this compound showed an IC50 at 72 h of 3.18 µg/mL (≈ 10.4 µM). Besides, the half-maximal inhibitory concentration (IC50) in the series on Trypanosoma brucei was determined as 0.92 µg/mL (≈ 3 µM).
`CCCCc1ccc(-c2nc(CNCc3ccc(OC)cc3)co2)cc1` had an IC50 at 72 h in series [1] of 3.13 µg/mL (≈ 8.93 µM). In series [2], this compound gave a CLint in vitro of 16 µL/min/mg. In “in vitro”, this compound had a half-life at 1 µM of 53 min.
The compound `CCCCCC(C)NCc1coc(-c2cc(F)cc(F)c2)n1` (stereo not drawn) displayed an IC50 at 24 h in series [3] of 42 µg/mL (≈ 136 µM). It took 7.08 µg/mL (≈ 23 µM) to reach half-maximal inhibition in series [1] (IC50 at 72 h). The IC50 in the series on Trypanosoma brucei came out at 1.71 µg/mL (≈ 5.55 µM).
The like results for `Clc1ccc(-c2nc(CNC3CCCCC3)co2)cc1` were, in that order, > 50 µg/mL, 6.85 µg/mL (≈ 23.6 µM) and 1.86 µg/mL (≈ 6.4 µM).
Consider `CCCCCC(C)NCc1coc(-c2c(F)cccc2F)n1` (stereo not drawn), for which the IC50 at 24 h in series [3] was > 50 µg/mL. Moreover, in series [1], half-maximal inhibition (IC50 at 72 h) was put at 18.7 µg/mL (≈ 60.6 µM). Besides, in the series on Trypanosoma brucei, the IC50 came out at 4.83 µg/mL (≈ 15.7 µM).
Taken in the same sequence, the figures for `CCCCCC(C)OCc1coc(-c2ccccc2)n1` (stereo not drawn) were > 50 µg/mL, 27.7 µg/mL (≈ 101 µM) and > 5 µg/mL.
Consider `CCCCC[C@H](C)NCc1coc(-c2ccc(Cl)cc2)n1`, for which the IC50 at 24 h in series [3] is 37 µg/mL (≈ 121 µM). In series [1], this compound showed a concentration for half-maximal inhibition (IC50) at 72 h of 7.01 µg/mL (≈ 22.8 µM). For the same compound, the IC50 in the series with Trypanosoma brucei is 1.76 µg/mL (≈ 5.74 µM).
The like results for `CCN(CC)Cc1coc(-c2ccc(Cl)cc2)n1` were, in that order, > 50 µg/mL, 39.5 µg/mL (≈ 149 µM) and > 5 µg/mL.
Consider `CCCCC[C@@H](C)N(Cc1coc(-c2ccc(Cl)cc2)n1)Cc1coc(-c2ccc(Cl)cc2)n1`, for which, in series [3], the IC50 at 24 h was > 50 µg/mL. Moreover, the IC50 at 72 h in series [1] was > 50 µg/mL. Also, the IC50 in the series with Trypanosoma brucei is > 5 µg/mL.
Take `CCCCCC(C)NCc1coc(-c2cc3ccccc3s2)n1` (stereo not drawn): in series [3], the IC50 at 24 h was > 50 µg/mL. In series [1], the IC50 at 72 h is 3.46 µg/mL (≈ 10.5 µM). Further, the IC50 with Trypanosoma brucei was 1.36 µg/mL (≈ 4.14 µM).
Taken in the same sequence, the figures for `Clc1ccc(-c2nc(CNC3CC4CCC3C4)co2)cc1` (stereo not drawn) were 40.7 µg/mL (≈ 134 µM), 3.47 µg/mL (≈ 11.5 µM) and 2.81 µg/mL (≈ 9.28 µM).
Consider `CC1CC(NCc2coc(-c3sccc3Cl)n2)CC(C)(C)C1` (stereo not drawn), for which the IC50 at 24 h in series [3] is > 50 µg/mL. Moreover, the IC50 at 72 h in series [1] is > 50 µg/mL. In addition, the IC50 in the series with Trypanosoma brucei is > 5 µg/mL.
For `C[C@@H](NCc1coc(-c2ccc(Cl)cc2)n1)C1CCCCC1`, in series [3], the IC50 at 24 h is > 50 µg/mL. The IC50 at 72 h in series [1] was < 3.13 µg/mL. In addition, the 50% inhibitory concentration (IC50) with Trypanosoma brucei amounted to 1.74 µg/mL (≈ 5.46 µM).
The like results for `CCCCCC(C)NCc1coc(-c2ccc(SC(F)(F)F)cc2)n1` (stereo not drawn) were, in that order, > 50 µg/mL, 3.64 µg/mL (≈ 9.77 µM) and 1.12 µg/mL (≈ 3.01 µM).
`CCCCCC(C)NCc1coc(-c2cccs2)n1` (stereo not drawn): the IC50 at 24 h in series [3] was > 50 µg/mL. The same compound had an IC50 at 72 h in series [1] of 13.5 µg/mL (≈ 48.6 µM). Besides, in the series with Trypanosoma brucei, the IC50 came to 3.83 µg/mL (≈ 13.8 µM).
